Results from patent US7053178B2, “Synthetic peptides and kits for diagnosis of anti-phospholipid syndrome” (Yeda Research Development Co., LTD, priority 1998, dated 2006).
Where no end group is shown, it is not given here.

Columns and labels:
[1] = system: anti-β2GPI G-3 mAb; assay: Competition ELISA: inhibition of G-3 mAb binding to β2GPI; parameters: species or system human; settings: 10 μM peptide concentration
Procedure: FIGS. 1A–1C are graphs showing inhibition of the anti-β2GPI ILA-1, ILA-3 and G-3 mAbs binding to β2GPI by competition assays using increasing concentrations of the inhibitory monomer peptides A, B and C, respectively, and of unrelated peptide D as control. The percent of inhibition was calculated as follows: % inhibition=O.D control−O.D with inhibitor/O.D control×100. Each point represents mean±SD of three different experiments.
(e) Inhibition of anti-β2GPI mAb binding to β2GPI by the inhibitory peptides. For competition ELISA tests, the anti-β2GPI mAbs (10 μg/ml) were preincubated (overnight at 4° C.) with varying concentrations of the peptides. The competition reaction was then transferred to β2GPI-coated γ-irradiated ELISA plates (Nunc), and the assay continued as described above. The percentage of inhibition was calculated as follows: % inhibition=O.D control −O.D with inhibitor/O.D control×100.
(2a) The specificity of interaction of the mAbs with the corresponding synthetic peptides A, B, C and control peptide D as monomers, was assessed by inhibition experiments as described in Materials and Methods, sections (e) and (f).

[2] = system: anti-β2GPI G-3 mAb; assay: ELISA for adhesion molecule expression on HUVEC exposed to G-3 mAb; format: cell-based, human; settings: G-3 mAb preincubated with peptide
Procedure: (§1) FIG. 4 is a bar graph showing inhibition of expression of the adhesion molecules E-selectin, intracellular adhesion molecule-1 (ICAM-1) and vascular cell adhesion molecule-1 (VCAM-1) on HUVEC by specific inhibitory monomer peptides A, B, or C. To the HUVEC incubated with β2GPI, were added anti-β2GPI ILA-1, ILA-3 and G-3 mAbs with and without preincubation (2 h) with the peptide monomers A, B and C, respectively, and control peptide D. The expression of adhesion molecules was probed by ELISA employing biotinylated anti-human ICAM-1, VCAM-1, E-selectin and streptavidin-alkaline phosphatase. Each point represents mean±SD of three different experiments.
(§2) (h) ELISA for detecting the expression of adhesion molecules following exposure to anti-β2GPI mAbs and the inhibitory peptides. HUVEC cells grown in 96-well plates and preincubated with mAbs, with and without different concentrations of specific and irrelevant peptides (100 ug/ml), were washed, fixed with 0.1% glutaraldehyde, and then treated with PBS containing 0.2% Triton-X100 in order to permeabilize the cell membrane (Adamson et al., 1996). The plates were blocked with 3% BSA and incubated with biotinylated mouse anti-human E-selectin, anti-human intracellular adhesion molecule-1 (ICAM-1) or anti-human vascular cell adhesion molecule-1 (VCAM-1) (PharMingen, Torreyana Road, San Diego, Calif.) 1 μg/ml for 1 hour. The cells were then exposed to streptavidin alkaline phosphatase (Jackson) and appropriate substrate.
(§3) The enhancement of monocytes to endothelial cells followed by increase in the amount of adhesion molecules expression, as a result of exposure of endothelial cells to anti-β2GPI mAbs, has been observed previously at the laboratory of one of the present inventors. The effect of each specific peptide monomer A, B, C on the expression of the adhesion molecules E-selectin, ICAM-1 and VCAM-1 on HUVEC caused by the corresponding anti-β2GPI mAb, was examined according to Materials and Methods, section (h). […]

[3] = system: anti-β2GPI G-3 mAb; assay: U937 monocyte adhesion to HUVEC exposed to G-3 mAb; format: cell-based, human; settings: G-3 mAb preincubated with peptide, 15 μM peptide
Procedure: FIGS. 3A–3C are graphs showing inhibition of U937 monocyte cell adhesion to HUVEC upon exposure to anti-β2GPI ILA-1, ILA-3 and G-3 mAbs and increasing concentrations of the inhibitory monomer peptides A, B and C, respectively, and of unrelated peptide D as control. The percentage of inhibition of adhesion was calculated as follows: % inhibition of adhesion=CPM in the presence of anti-β2GPI mAb−CPM in the presence of anti-β2GPI mAb and the tested peptide/CPM in the presence of anti-β2GPI mAb×100 (CPM=counts/min). Each point represents mean±SD of three different experiments.
(g) Adherence of U937 monocyte cells to endothelial cells in the presence of anti-β2GPI mAbs and the inhibitory peptides. This assay was performed as previously described (Carvalho et al., 1996). Briefly, U937 cells (a monocyte/macrophage-like cell line) were pretreated with heat-aggregated gamma-globulin for 30 min at 37° C. […] Radioactivity associated with adherence was quantified by beta-scintillation spectroscopy. The results were expressed as percent of added U937 cells that adhered and are presented as the mean±SD from 3–5 replicate wells.
The adhesion of monocytes to endothelial cells (EC) is considered a marker of EC activation. The percentage of adhesion is expressed as the portion of added U937 monocyte cells adhering to the HUVEC (thus reflecting the percentage of HUVEC coverage by the monocytes). […]

[4] = system: anti-β2GPI ILA-3 mAb; assay: ELISA for adhesion molecule expression on HUVEC exposed to ILA-3 mAb; format: cell-based, human
Procedure: as §1, §2, §3

Sequence | inhibition of G-3 mAb binding to β2GPI [1] [%] | E-selectin expression by HUVEC [2] [O.D.] | ICAM-1 expression by HUVEC [2] [O.D.] | VCAM-1 expression by HUVEC [2] [O.D.] | inhibition of adhesion of U937 to HUVEC [3] [%] | ICAM-1 expression by HUVEC ([4]; HUVEC exposed to ILA-3 mAb) | VCAM-1 expression by HUVEC ([4]; HUVEC exposed to ILA-3 mAb) | E-selectin expression by HUVEC ([4]; ILA-3 mAb preincubated with peptide) [O.D.]
CATLRVYKGG [Peptide C] | 98 | 0.215±0.047 | 0.186±0.062 | 0.174±0.062 | 92 | – | – | –
KDKATFGTHDG [Peptide B] | – | – | – | – | – | abrogated | abrogated | 0.211±0.064
